Source: patent US8080546B2, “Pyrazolo-pyridinone derivatives and methods of use” (Amgen Inc., priority 2007, dated 2011)
Read-outs that look alike come from different tables or passages of the source.

Tests used:
[1] = system: THP1 cells; experiment: Lipopolysaccharide-activated THP1 cell TNF production assay (THP1 cell based); conditions: Homo sapiens, THP-1, LPS-induced TNF-α
Method: Lipopolysaccharide-Activated THP1 Cell TNF Production Assay
THP1 cells are resuspended in fresh THP1 media (RPMI 1640, 10% heat-inactivated FBS, 1XPGS, 1XNEAA, plus 30 μM PME) at a concentration of 1E6/mL. One hundred microliters of cells per well are plated in a polystyrene 96-well tissue culture. One microgram per mL of bacterial LPS is prepared in THP1 media and is transferred to the wells. Test compounds are dissolved in 100% DMSO and are serially diluted 3-fold in a polypropylene 96-well microtiter plate (drug plate). HI control and LO control wells contain only DMSO. One microliter of test compound from the drug plate followed by 10 μL of LPS are transferred to the cell plate. The treated cells are induced to synthesize and secrete TNF-α at 37° C. for 3 h. Forty microliters of conditioned media are transferred to a 96-well polypropylene plate containing 110 μL of ECL buffer (50 mM Tris-HCl pH 8.0, 100 mM NaCl, 0.05% Tween 20, 0.05% NaN3 and 1% FBS) supplemented with 0.44 nM MAB610 monoclonal Ab (R&D Systems), 0.34 nM ruthenylated AF210NA polyclonal Ab (R&D Systems) and 44 μg/mL sheep anti-mouse M280 Dynabeads (Dynal). After a 2 h incubation at room temperature with shaking, the reaction is read on the ECL M8 Instrument (IGEN Inc.). A low voltage is applied to the ruthenylated TNF-α immune complexes, which in the presence of TPA (the active component in Origlo), results in a cyclical redox reaction generating light at […]. The amount of secreted TNF-α in the presence of compound compared with that in the presence of DMSO vehicle alone (HI control) is calculated using the formula: % control (POC)=(cpd−average LO)/(average HI−average LO)*100. Data (consisting of POC and inhibitor concentration in μM) is fitted to a 4-parameter equation (y=A+((B−A)/(1+((x/C)^D))), where A is the minimum y (POC) value, B is the maximum y (POC), C is the x (cpd concentration) at the point of inflection and D is the slope factor) using a Levenburg-Marquardt non-linear regression algorithm.

[2] = system: IL-1; experiment: LPS induced IL-1 cell based assay (LPS-activated monocytes); conditions: Homo sapiens, Monocyte
Method: Lipopolysaccharide-Activated Monocyte TNF Production Assay
Test compounds were evaluated in vitro for the ability to inhibit the production of TNF by monocytes activated with bacterial lipopolysaccharide (LPS). Fresh residual source leukocytes (a byproduct of plateletpheresis) were obtained from a local blood bank, and peripheral blood mononuclear cells (PBMCs) were isolated by density gradient centrifugation on Ficol-Paque Plus (Pharmacia). PBMCs were suspended at 2×10^6/mL in DMEM supplemented to contain 2% FCS, 10 mM, 0.3 mg/mL […], 100 U/mL penicillin G and […] streptomycin sulfate (complete media). Cells were plated into Falcon flat bottom, 96 well culture plates (200 μL/well) and cultured overnight at 37° C. and 6% CO2. Non-adherent cells were removed by washing with 200 μl/well of fresh medium. Wells containing adherent cells (˜70% monocytes) were replenished with 100 μL of fresh medium.
Preparation of Test Compound Stock Solutions
Test compounds were dissolved in […]. Compound stock solutions were prepared to an initial concentration of […]. Stocks were diluted initially to 20-200 μM in complete media. Nine two-fold serial dilutions of each compound were then prepared in complete medium.
Treatment of Cells with Test Compounds and Activation of TNF Production with Lipopolysaccharide
One hundred microliters of each test compound dilution were added to microtiter wells containing adherent monocytes and 100 μL complete medium. Monocytes were cultured with test compounds for 60 min at which time 25 μL of complete medium containing 30 ng/mL lipopolysaccharide from E. coli K532 were added to each well. Cells were cultured an additional 4 hrs. Culture supernatants were then removed and TNF presence in the supernatants was quantified using an ELISA. […]
Standard curve data were fit to a second order polynomial and unknown TNF-α concentrations determined from their OD by solving this equation for concentration. TNF concentrations were then plotted vs. test compound concentration using a second order polynomial. This equation was then used to calculate the concentration of test compounds causing a 50% reduction in TNF production.
Compounds of the invention can also be shown to inhibit LPS-induced release of IL-1β, IL-6 and/or IL-8 from monocytes by measuring concentrations of IL-1β, IL-6 and/or IL-8 by methods well known to those skilled in the art. […] Thus, the compounds of the invention may lower elevated levels of TNF-α, IL-1, IL-6, and IL-8 levels. Reducing elevated levels of these inflammatory cytokines to basal levels or below is favorable in controlling, slowing progression, and alleviating many disease states.

[3] = target: p38 (Homo sapiens, UniProt Q16539); experiment: p38 in-vitro HTRF enzyme assay; assay type: biochemical; conditions: recombinant human enzyme, read-out: p38 enyme HTRF assay IC50
Method: p38 In-Vitro HTRF Enzyme Assay
The compounds of the invention can be tested for their respective affinities for the p38 protein using a conventional p38 in-vitro enzyme activity assay. For example, a P38-alpha HTRF assay may be used to measure the protein's in-vitro phosphorylation activity, and the data analyzed using time resolved fluorimetry techniques (FRET). A p38 HTRF assay is as follows. The kinase reaction buffer for p38α, p38β, p38δ and p38γ HTRF assays consists of 50 mM Tris-pH 7.5, 5 mM MgCl2, 0.1 mg/mL BSA, 100 μM Na3VO4 and 0.5 mM DTT. The HTRF detection buffer contains 100 mM HEPES-pH 7.5, 100 mM NaCl, 0.1% BSA, 0.05% Tween-20, and 10 mM EDTA. Each compound was dissolved in 100% DMSO and serially diluted (3 fold, 10 point) in a polypropylene 96-well microtiter plate (drug plate). The final starting concentration of the compound in the p38α and p38β enzymatic assays was about 1 μM. The final starting concentration of each compound in the p38δ and p38γ enzymatic assays was about 10 μM. The p38α, p38β, p38δ and p38γ kinase reactions were carried out in a polypropylene 96-well black round bottom assay plate in total volume of 30 μL kinase reaction buffer. Appropriate concentration of purified and activated enzyme (recombinant human) was mixed with indicated concentration of ATP and 100 nM GST-ATF2-Avitag, in the presence or absence (HI control) of each compound. In the absence of enzyme, the background was measured as LO control. HI controls and LO controls contained only DMSO. The reaction was allowed to incubate for 1 hour at RT. […] After 60 minutes incubation at room temperature, the assay plate was read in a Discovery Plate Reader. […] The resulting data was analyzed by taking the proportion of substrate phosphorylated in the kinase reaction in the presence of each individual compound and comparing it with that phosphorylated in the presence of DMSO vehicle alone (HI control). The data was calculated using the formula: % control (POC)=(compound−average LO)/(average HI−average LO)*100. […] All results were expressed as the mean±the standard error of the mean. Data acquisition and non-linear regression algorithms were performed using Activity Base v5.2 and XLfit software v4.1 respectively. Additional assay information may be obtained in Park Y W, Cummings R T, Wu L, et al. Homogeneous Proximity Tyrosine Kinase Assays Scintillation Proximity Assay versus Homogeneous Time-Resolved Fluorescence. Analytical Biochemistry.

Chain of p38 (Q16539 whole entry): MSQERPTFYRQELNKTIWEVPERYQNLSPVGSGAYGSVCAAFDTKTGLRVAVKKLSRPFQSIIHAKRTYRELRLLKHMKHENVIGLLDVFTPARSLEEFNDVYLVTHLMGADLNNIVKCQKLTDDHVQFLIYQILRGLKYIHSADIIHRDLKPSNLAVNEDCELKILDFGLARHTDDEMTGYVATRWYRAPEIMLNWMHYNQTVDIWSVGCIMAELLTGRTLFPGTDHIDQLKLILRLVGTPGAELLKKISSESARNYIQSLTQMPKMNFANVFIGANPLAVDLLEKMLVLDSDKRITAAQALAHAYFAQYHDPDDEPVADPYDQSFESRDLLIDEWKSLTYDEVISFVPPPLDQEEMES

Compound	IC50 ([1]; range symbols)	IC50 ([2]; range symbols)	IC50 ([3]; range symbols)	IC50 ([1]; actual values)	IC50 ([2]; actual values)	IC50 ([3]; actual values)
Cc1ccc(C(=O)O)cc1Nc1cc(=O)n(C)c2c1cnn2-c1ccc(F)cc1F [Example 17, 3-((1-(2,4-difluorophenyl)-7-methyl-6-oxo-6,7-dihydro-1H-pyrazolo[3,4-b]pyridin-4-yl)amino)-4-methylbenzoic acid]	1000 to 5000 nM	1000 to 5000 nM	1000 to 5000 nM			
Cc1ccc(C(N)=O)cc1Nc1cc(=O)n(C)c2c1cnn2-c1ccc(F)cc1F [Example 18, 3-((1-(2,4-difluorophenyl)-7-methyl-6-oxo-6,7-dihydro-1H-pyrazolo[3,4-b]pyridin-4-yl)amino)-4-methylbenzamide]	< 25 nM	< 25 nM	< 25 nM			
Cc1ccc(C(=O)NC2CC2)cc1Oc1cc(=O)n(C)c2c1cnn2-c1ccc(F)cc1F [Example 19, N-cyclopropyl-3-((1-(2,4-difluorophenyl)-7-methyl-6-oxo-6,7-dihydro-1H-pyrazolo[3,4-b]pyridin-4-yl)oxy)-4-methylbenzamide]	< 25 nM	25 to 99 nM	< 25 nM			
Cc1ccc(C(=O)NC2CC2)cc1Nc1cc(=O)n(C)c2c1cnn2-c1cc(F)ccc1F [Example 20, N-cyclopropyl-3-((1-(2,5-difluorophenyl)-7-methyl-6-oxo-6,7-dihydro-1H-pyrazolo[3,4-b]pyridin-4-yl)amino)-4-methylbenzamide]	< 25 nM	< 25 nM	< 25 nM			
Cc1ccc(C(N)=O)cc1Nc1cc(=O)n(C)c2c1cnn2-c1cc(F)ccc1F [Example 21, 3-((1-(2,5-difluorophenyl)-7-methyl-6-oxo-6,7-dihydro-1H-pyrazolo[3,4-b]pyridin-4-yl)amino)-4-methylbenzamide]	< 25 nM	25 to 99 nM	< 25 nM			
Cc1ccc(C(=O)NC2CC2)cc1Oc1cc(=O)n(C)c2c1cnn2-c1cc(F)ccc1F [Example 22, N-cyclopropyl-3-((1-(2,5-difluorophenyl)-7-methyl-6-oxo-6,7-dihydro-1H-pyrazolo[3,4-b]pyridin-4-yl)oxy)-4-methylbenzamide]	< 25 nM	100 to 249 nM	< 25 nM			
CCn1c(=O)cc(Nc2cc(C(=O)NC3CC3)ccc2C)c2cnn(-c3ccc(F)cc3)c21 [Example 23, N-cyclopropyl-3-((7-ethyl-1-(4-fluorophenyl)-6-oxo-6,7-dihydro-1H-pyrazolo[3,4-b]pyridin-4-yl)amino)-4-methylbenzamide]	< 25 nM	< 25 nM	< 25 nM			
CCn1c(=O)cc(Oc2cc(C(=O)NC3CC3)ccc2C)c2cnn(-c3ccc(F)cc3)c21 [Example 24, N-cyclopropyl-3-((7-ethyl-1-(4-fluorophenyl)-6-oxo-6,7-dihydro-1H-pyrazolo[3,4-b]pyridin-4-yl)oxy)-4-methylbenzamide]	< 25 nM	25 to 99 nM	< 25 nM			
CCn1c(=O)cc(Nc2cc(C(=O)NC3CC3)ccc2Cl)c2cnn(-c3ccc(F)cc3F)c21 [Example 27, 4-chloro-N-cyclopropyl-3-((1-(2,4-difluorophenyl)-7-ethyl-6-oxo-6,7-dihydro-1H-pyrazolo[3,4-b]pyridin-4-yl)amino)benzamide]				0.4 nM	3.3 nM	1.2 nM
Cn1c(=O)cc(Nc2cc(C(=O)NC3CC3)ccc2Cl)c2cnn(-c3ccc(F)cc3)c21 [Example 28, 4-chloro-N-cyclopropyl-3-((1-(4-fluorophenyl)-7-methyl-6-oxo-6,7-dihydro-1H-pyrazolo[3,4-b]pyridin-4-yl)amino)benzamide]				0.8 nM	4.2 nM	2.1 nM
CCn1c(=O)cc(Nc2cc(C(=O)NC3CC3)ccc2Cl)c2cnn(-c3ccc(F)cc3)c21 [Example 29, 4-chloro-N-cyclopropyl-3-((7-ethyl-1-(4-fluorophenyl)-6-oxo-6,7-dihydro-1H-pyrazolo[3,4-b]pyridin-4-yl)amino)benzamide]				1.4 nM	3.6 nM	1.7 nM
CONC(=O)c1ccc(C)c(Nc2cc(=O)n(C)c3c2cnn3-c2ccc(F)cc2F)c1 [Example 30, 3-((1-(2,4-difluorophenyl)-7-methyl-6-oxo-6,7-dihydro-1H-pyrazolo[3,4-b]pyridin-4-yl)amino)-N-methoxy-4-methylbenzamide]				0.6 nM	3.8 nM	1.6 nM
